Here are results for five molecules from US6264916A, “N,N-dimethyldiatrizoic acid and its conjugates as hepatobiliary agents for x-ray CT imaging” (Bracco Research, USA, priority 2000, dated 2001).

Where two headings read alike, the source gives them in different places.

Data set [1] is described as follows: Biodistribution studies in mice (radioiodinated compounds, % ID/g-tissue). It counts as in vivo. The note with it: tracer level, but MDTA-Na 0.18M and MDTA-NMG 0.19M; for tissue uptake at 1 min / tissue uptake at 5 min / tissue uptake at 1 h: mouse, iv; for tissue uptake at 1 h / Biodistribution, Blood 60' / Biodistribution, Kidney 60' / Biodistribution, Liver 60' / Biodistribution, Sm/Lrg. Intestine 60': 60'; for Biodistribution, Blood 5' / Biodistribution, Kidney 5' / Biodistribution, Liver 5' / Biodistribution, Sm/Lrg. Intestine 5': 5 min; for Biodistribution, Kidney 1' / Biodistribution, Blood 1' / Biodistribution, Liver 1' / Biodistribution, Sm/Lrg. Intestine 1': 1 min. On the procedure: All of the new analogs were radiolabeled in order to determine their physical and biological properties. The iodinated compounds were exchange-labeled by heating with Na^125 I in the presence of CuSO4 and Na2 S2 O5 in glacial acetic acid at 135-150° C. for 1 h, followed by HPLC purification using a nucleosil C18 column and CH3 CN--H2 O containing 0.1% TFA as an eluent. In some cases (e.g. the compound of Example 12) the radioiodination was carried out by heating with Na*I in HOAc--NaOAc (pH 4.6) at 100° C. for 15 min. In all cases radiolabeled compounds of acceptable radiochemical purity and specific activity were obtained.
The compound of formula I, N,N-dimethyl-diatrizoic acid, was similarly radiolabeled for biological studies.
a) For intravenous administration the preferred vehicle for the compounds of formula I, II and III is bovine serum albumin, however, other physiologically acceptable vehicles may also be used.
Biodistribution studies were conducted in mice and the results are given in Table I. X-Ray CT images of MDTA in mice and rats indicate that these hydrophobic diatrizoate analogs may be of promise for liver imaging.

A short description of data set [2]: Water solubility of MDTA salts. It counts as physicochemical. On the procedure:
The compound of formula I, N,N-Dimethyldiatrizoic acid (I') (hereinafter sometimes referred to as MDTA) was synthesized, as in reference H. Holtermann et al., U.S. Pat. No. 3,178,673, Apr. 13, 1965, by the N-methylation of diatrizoic acid (IV) using either methyl iodide or dimethyl sulfate in aqueous media at alkaline pH to obtain pure MDTA (>99.9% purity) as a white crystalline solid (m.p. 185° C.).

Setting [3] is: blood, blood, read-out: Biodistribution, Blood 1'.
The mark [4] stands for this setting: blood, blood, read-out: Biodistribution, Blood 5'.
[5] abbreviates: blood, blood, read-out: Biodistribution, Blood 60'.
The mark [6] stands for this setting: kidney, kidney, read-out: Biodistribution, Kidney 1'.
[7] abbreviates: kidney, kidney, read-out: Biodistribution, Kidney 5'.
Where [8] appears, read: kidney, kidney, read-out: Biodistribution, Kidney 60'.
Setting [9] is: liver, liver, read-out: Biodistribution, Liver 1'.
Where [10] appears, read: liver, liver, read-out: Biodistribution, Liver 5'.
[11] abbreviates: liver, liver, read-out: Biodistribution, Liver 60'.
The mark [12] stands for this setting: small/large intestine, small/large intestine, read-out: Biodistribution, Sm/Lrg. Intestine 1'.
Setting [13] is: small/large intestine, small/large intestine, read-out: Biodistribution, Sm/Lrg. Intestine 5'.
[14] abbreviates: small/large intestine, small/large intestine, read-out: Biodistribution, Sm/Lrg. Intestine 60'.

With `CC(=O)N(C)c1c(I)c(C(=O)Nc2ccc(CCCCCCCCCCCCCCC(=O)O)cc2)c(I)c(N(C)C(C)=O)c1I` [Example F15-P-MDTA, 4-[[[3,5-Bis(acetylmethylamino)-2,4,6-triiodophenyl]carbonyl]amino]benzenepentadecanoic acid], the tissue uptake at 1 min came out at 24.6 %ID/g in data set [1] (setting [3]), 8.28 %ID/g in data set [1] (setting [6]), 46.4 %ID/g in data set [1] (setting [9]) and 2.13 %ID/g in data set [1] (setting [12]). Moreover, the tissue uptake at 5 min in data set [1] (setting [4]) stood at 4.28 %ID/g; in data set [1] (setting [7]) it was 5.1 %ID/g; in data set [1] (setting [10]) it was 76.3 %ID/g; in data set [1] (setting [13]) it was 4.85 %ID/g. Also, the tissue uptake at 1 h in data set [1] (setting [5]) was determined as 0.12 %ID/g; in data set [1] (setting [8]) it was 0.34 %ID/g; in data set [1] (setting [11]), 6.18 %ID/g; in data set [1] (setting [14]), 43.7 %ID/g.
Turning to `CC(=O)N(C)c1c(I)c(C(=O)Nc2ccc(CCCCCCCCCCCCCCCCCCC(=O)O)cc2)c(I)c(N(C)C(C)=O)c1I` [Example F19-P-MDTA], the tissue uptake at 1 min in data set [1] (setting [3]) amounted to 36.7 %ID/g; in data set [1] (setting [6]) it was 5.56 %ID/g; in data set [1] (setting [9]), 17.2 %ID/g; in data set [1] (setting [12]) it was 1.05 %ID/g. Further, the tissue uptake at 5 min turned out to be 13.2 %ID/g in data set [1] (setting [4]), 5.45 %ID/g in data set [1] (setting [7]), 24.7 %ID/g in data set [1] (setting [10]) and 2.4 %ID/g in data set [1] (setting [13]). The tissue uptake at 1 h was determined as 0.68 %ID/g in data set [1] (setting [5]), 2.67 %ID/g in data set [1] (setting [8]), 10.4 %ID/g in data set [1] (setting [11]) and 14.4 %ID/g in data set [1] (setting [14]).
Regarding `CC(=O)N(C)c1c(I)c(C(=O)O)c(I)c(N(C)C(C)=O)c1I` [MDTA, 3,5-Bis-(Acetylmethylamino)-2,4,6-triiodobenzoic acid], in data set [1] (blood), the “Biodistribution, Blood 5'” value is 1.21 % ID/g-tissue. For the same molecule, the “Biodistribution, Blood 60'” value in data set [1] (blood) came to 0.00 % ID/g-tissue. For the same molecule, the “Biodistribution, Kidney 1'” value in data set [1] (kidney) was determined as 37.57 % ID/g-tissue. In addition, the “Biodistribution, Kidney 60'” value in data set [1] (kidney, 60 min) was 0.18 % ID/g-tissue. Besides, the “Biodistribution, Liver 60'” value in data set [1] (liver, 60 min) was found to be 0.85 % ID/g-tissue. Also, the tissue uptake at 1 min was 4.56 %ID/g in data set [1] (setting [3]), 15.8 %ID/g in data set [1] (setting [9]) and 1.5 %ID/g in data set [1] (setting [12]). Moreover, the figures for the tissue uptake at 5 min in data set [1] (setting [7]), in data set [1] (setting [10]) and in data set [1] (setting [13]) were 21.5 %ID/g, 15.4 %ID/g and 4.55 %ID/g, respectively. Moreover, in data set [1] (setting [14]), the tissue uptake at 1 h came to 13.3 %ID/g.
On to `CC(=O)N(C)c1c(I)c(C(=O)O)c(I)c(N(C)C(C)=O)c1I` [MDTA-NMG], for which the Water solubility in data set [2] (listed as N-methyl-glucamine (NMG) salt) is on record as ~ 1.3 M. In addition, in data set [1] (blood), the “Biodistribution, Blood 1'” value came to 6.63 % ID/g-tissue and the “Biodistribution, Blood 5'” value is recorded as 3.66 % ID/g-tissue. Moreover, the “Biodistribution, Blood 60'” value in data set [1] (blood, 60 min) is 0.12 % ID/g-tissue. In data set [1] (kidney), the “Biodistribution, Kidney 1'” value turned out to be 13.53 % ID/g-tissue and the “Biodistribution, Kidney 5'” value was 12.65 % ID/g-tissue. For the same molecule, in data set [1] (kidney, 60 min), the “Biodistribution, Kidney 60'” value is given as 0.81 % ID/g-tissue. In data set [1] (liver), the “Biodistribution, Liver 1'” value is 12.30 % ID/g-tissue and the “Biodistribution, Liver 5'” value was determined as 16.23 % ID/g-tissue. Also, in data set [1] (liver, 60 min), the “Biodistribution, Liver 60'” value is on record as 2.13 % ID/g-tissue. Besides, in data set [1] (small/large intestine), the “Biodistribution, Sm/Lrg. Intestine 1'” value was 2.03 % ID/g-tissue and the “Biodistribution, Sm/Lrg. Intestine 5'” value is listed as 3.80 % ID/g-tissue. Besides, the “Biodistribution, Sm/Lrg. Intestine 60'” value in data set [1] (small/large intestine, 60 min) is 16.48 % ID/g-tissue.
As for `CC(=O)N(C)c1c(I)c(C(=O)O)c(I)c(N(C)C(C)=O)c1I` [MDTA-Na], the Water solubility in data set [2] (listed as sodium salt) is ~ 0.35 M. In data set [1] (blood), the “Biodistribution, Blood 1'” value is 6.21 % ID/g-tissue and the “Biodistribution, Blood 5'” value came to 3.03 % ID/g-tissue. In data set [1] (kidney), the “Biodistribution, Kidney 1'” value stood at 12.97 % ID/g-tissue and the “Biodistribution, Kidney 5'” value is listed as 12.72 % ID/g-tissue. Moreover, the “Biodistribution, Kidney 60'” value in data set [1] (kidney, 60 min) is 0.96 % ID/g-tissue. In data set [1] (liver), the “Biodistribution, Liver 1'” value was found to be 13.23 % ID/g-tissue and the “Biodistribution, Liver 5'” value turned out to be 17.56 % ID/g-tissue. Also, the “Biodistribution, Liver 60'” value in data set [1] (liver, 60 min) was found to be 2.42 % ID/g-tissue. The tissue uptake at 1 h in data set [1] (setting [5]) came to 0.16 %ID/g. In data set [1] (small/large intestine), the “Biodistribution, Sm/Lrg. Intestine 1'” value is on record as 1.81 % ID/g-tissue and the “Biodistribution, Sm/Lrg. Intestine 5'” value turned out to be 3.92 % ID/g-tissue. In addition, the “Biodistribution, Sm/Lrg. Intestine 60'” value in data set [1] (small/large intestine, 60 min) is on record as 17.02 % ID/g-tissue.
